This note sets out measurements from ChEMBL document CHEMBL1250518, “Nonsteroidal dissociated glucocorticoid agonists containing azaindoles as steroid A-ring mimetics” (J Med Chem, 2010).

Data set [1] relates to Mus musculus. The experiment in a line: Toxicity in B10.RIII mouse assessed as increase of body fat content at 30 mg/kg, po qd for 5 weeks. Format: organism-based. Also on record: dose 30 mg/kg, route oral. Particulars: in vivo, 840 h.
In data set [2] the target is T1, Glucocorticoid receptor (Homo sapiens, UniProt P04150).
T1 sequence (P04150 whole entry): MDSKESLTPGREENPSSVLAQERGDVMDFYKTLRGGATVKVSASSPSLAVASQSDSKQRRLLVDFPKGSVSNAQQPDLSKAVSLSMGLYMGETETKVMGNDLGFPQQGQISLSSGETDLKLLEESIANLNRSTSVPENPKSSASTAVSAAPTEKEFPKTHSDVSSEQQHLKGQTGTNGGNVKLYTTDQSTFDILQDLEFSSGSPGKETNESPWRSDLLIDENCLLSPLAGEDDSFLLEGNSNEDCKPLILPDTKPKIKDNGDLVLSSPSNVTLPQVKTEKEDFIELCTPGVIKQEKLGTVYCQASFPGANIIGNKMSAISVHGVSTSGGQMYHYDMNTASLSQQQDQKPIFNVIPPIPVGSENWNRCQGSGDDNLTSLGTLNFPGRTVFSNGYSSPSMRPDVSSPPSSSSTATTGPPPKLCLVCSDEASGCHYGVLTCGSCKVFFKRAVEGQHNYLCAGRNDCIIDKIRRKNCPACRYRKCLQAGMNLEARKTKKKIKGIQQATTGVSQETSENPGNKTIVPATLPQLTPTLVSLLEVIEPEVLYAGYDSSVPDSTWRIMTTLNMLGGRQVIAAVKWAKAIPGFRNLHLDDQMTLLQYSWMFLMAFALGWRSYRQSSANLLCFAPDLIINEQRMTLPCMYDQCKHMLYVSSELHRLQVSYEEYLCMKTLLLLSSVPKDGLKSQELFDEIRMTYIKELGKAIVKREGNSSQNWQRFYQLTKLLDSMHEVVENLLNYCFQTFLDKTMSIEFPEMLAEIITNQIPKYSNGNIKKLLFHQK
The experiment in a line: Transactivation activity at glucocorticoid receptor in HFF assessed as induction of aromatase activity after 18 to 24 hrs by ELISA. Format: cell-based. A general note: An ELISA detects its analyte on a solid surface through an enzyme-linked reagent.

For data set [3], the system named is Mus musculus. In words: Toxicity in B10.RIII mouse assessed as increase of triglyceride level at 30 mg/kg, po qd for 5 weeks. As to conditions: in vivo, 840 h. Details: dose 30 mg/kg, route oral. Format: organism-based.
The test system of data set [4] is Mus musculus. The experiment in a line: Toxicity in collagen and Freund's complete adjuvant-induced B10.RIII mouse arthritis model assessed as increase of free fatty acids level at 30 mg/kg, po qd for 5 weeks. Format: organism-based. Details: dose 30 mg/kg, route oral. Particulars: in vivo, 840 h.
Data set [5] relates to Mus musculus. In words: Toxicity in collagen and Freund's complete adjuvant-induced B10.RIII mouse arthritis model assessed as increase of triglyceride level at 30 mg/kg, po qd for 5 weeks. Format: organism-based. Details: dose 30 mg/kg, route oral. Particulars: in vivo, 840 h.
Data set [6] concerns Mus musculus. In words: Toxicity in collagen and Freund's complete adjuvant-induced B10.RIII mouse arthritis model assessed as increase of serum insulin level at 30 mg/kg, po qd for 5 weeks. Format: organism-based. Also on record: dose 30 mg/kg, route oral. As to conditions: in vivo, 840 h.
Data set [7] deals with Mus musculus. The experiment in a line: Toxicity in collagen and Freund's complete adjuvant-induced B10.RIII mouse arthritis model assessed as increase of body fat content at 30 mg/kg, po qd for 5 weeks. Format: organism-based. Details: dose 30 mg/kg, route oral. As to conditions: in vivo, 840 h.
The test system of data set [8] is Mus musculus. In words: Toxicity in B10.RIII mouse assessed as increase of serum insulin level at 30 mg/kg, po qd for 5 weeks. Details: dose 30 mg/kg, route oral. Particulars: in vivo, 840 h. The format is organism-based.
In data set [9] the test system is Mus musculus. In words: Antiinflammatory activity in po dosed BALB/c mouse assessed as reduction of LPS-induced plasma TNFalpha level administered 1 hr before LPS challenge by ELISA. Format: functional.
Another data set deals with Rattus norvegicus. In words: AUC (infinity) in Sprague-Dawley rat at 30 mg/kg, po. Format: ADME, organism-based, Plasma. As to conditions: in vivo. Details: time infinity, dose 30 mg/kg, route oral.
Data set [10] addresses T1, Glucocorticoid receptor. In words: Transrepression activity at glucocorticoid receptor in HFF assessed as inhibition of IL-1-induced IL-6 production after 18 to 24 hrs by ELISA. The format is cell-based.
Data set [11] in a line: Cmax in Sprague-Dawley rat at 30 mg/kg, po. As to conditions: in vivo. Details: dose 30 mg/kg, route oral. Format: ADME, organism-based.

Regarding `CC(C)(C[C@@](O)(Cc1cc2ccncc2[nH]1)C(F)(F)F)c1cc(F)ccc1O`, the Activity entry in the data set on Mus musculus [1] is “Non-toxic”; in the data set with Mus musculus [3] it was “Toxic”; in the data set with Mus musculus [4], “Non-toxic”; in the data set on Mus musculus [5] it was “Non-toxic”; with Mus musculus [6], “Toxic”; with Mus musculus [7], “Toxic”. The Activity result with Mus musculus [8] was “Non-toxic”. Moreover, the EC50 (in general, the concentration that produces a half-maximal response) at Glucocorticoid receptor [2] is 30 nM. Further, the ED50 – broadly, the midpoint of the dose-response relation – with Mus musculus [9] was below 0.3 mg/kg. Besides, the area under the curve (AUC) – broadly, concentration integrated over time – in the data set with Rattus norvegicus stood at 2236 ng·h/mL. Besides, the IC50 (in general, the midpoint of a concentration-inhibition curve) on Glucocorticoid receptor [10] stood at 3.3 nM. In addition, the maximum concentration (Cmax) (commonly the maximum level reached in the sampled fluid or tissue) in [11] turned out to be 444 ng/mL.
